How the values were obtained:
[1] = Single intravenous (IV) dose pharmacokinetics study in rats; plasma concentration of MDMA by LC-MS/MS
[2] = Single oral (PO) dose pharmacokinetics study in rats; plasma concentration of MDMA (and prodrug) by LC-MS/MS; conditions: for AUC(0-t): po, mean
[3] = male, Sprague-Dawley, rat, plasma, iv, 1 mg/kg
[4] = 0.50 h after oral dosing of prodrug 10 mg/Kg, male SD rats
[5] = 1.00 h after oral dosing of prodrug 10 mg/Kg, male SD rats
[6] = 2.00 h after oral dosing of prodrug 10 mg/Kg, male SD rats
[7] = 4.00 h after oral dosing of prodrug 10 mg/Kg, male SD rats
[8] = 7.00 h after oral dosing of prodrug 10 mg/Kg, male SD rats
[9] = 24.0 h after oral dosing of prodrug 10 mg/Kg, male SD rats

| SMILES | Tlast ([1]; MDMA dosed IV 1 mg/Kg, male SD rats, analyte MDMA, median) [h] | Vd [1, 3] [L/kg] | clearance [1, 3] [mL/min/kg] | Tlast ([2]; MDMA dosed PO 10 mg/Kg, male SD rats, analyte MDMA, median) [h] | bioavailability ([2]; male, Sprague-Dawley, rat, plasma, oral, 10 mg/kg) [%] | AUC(0-t) ([2]; male, Sprague-Dawley, rat, plasma, 10 mg/kg, AUC0-2, MDMA dosed PO 10 mg/Kg, male SD rats, analyte MDMA) [ng·h/mL] | AUC(0-t) ([2]; male, Sprague-Dawley, rat, plasma, 10 mg/kg, AUC0-24, MDMA dosed PO 10 mg/Kg, male SD rats, analyte MDMA) [ng·h/mL] | AUC(0-t) ([2]; male, Sprague-Dawley, rat, plasma, 10 mg/kg, AUC0-last, MDMA dosed PO 10 mg/Kg, male SD rats, analyte MDMA) [ng·h/mL] | Mean plasma concentration of metabolite MDMA [2, 4] | Mean plasma concentration of metabolite MDMA [2, 5] | Mean plasma concentration of metabolite MDMA [2, 6] | Mean plasma concentration of metabolite MDMA [2, 7] | Mean plasma concentration of metabolite MDMA [2, 8] | Mean plasma concentration of metabolite MDMA [2, 9] |
| --- | --- | --- | --- | --- | --- | --- | --- | --- | --- | --- | --- | --- | --- | --- |
| CNC(C)Cc1ccc2c(c1)OCO2 (centres unmarked) [MDMA, 3,4-Methylenedioxymethamphetamine] | 2.00 | 8.18 | 274 | 7.00 | 104 | 638 | 1810 | 1710 |  |  |  |  |  |  |
| CC(Cc1ccc2c(c1)OCO2)N(C)C(=O)OC(C)(C)C (centres unmarked) [Tert-butyl carbamate prodrug of MDMA, tert-butyl N-[2-(1,3-benzodioxol-5-yl)-1-methyl-ethyl]-N-methyl-carbamate] |  |  |  |  |  |  |  |  | BLQ (BLQ: Below Lower Limit of Quantification (0.5 ng/mL)) | BLQ (BLQ: Below Lower Limit of Quantification (0.5 ng/mL)) | BLQ (BLQ: Below Lower Limit of Quantification (0.5 ng/mL)) | BLQ (BLQ: Below Lower Limit of Quantification (0.5 ng/mL)) | BLQ (BLQ: Below Lower Limit of Quantification (0.5 ng/mL)) | BLQ (BLQ: Below Lower Limit of Quantification (0.5 ng/mL)) |
| CC(Cc1ccc2c(c1)OCO2)N(C)C(=O)C(C)(C)C (centres unmarked) [Tert-butyl amide prodrug of MDMA, N-[2-(2H-1,3-Benzodioxol-5-yl)-1-methyl-ethyl]-N-methyl-2,2-dimethylpropionamide] |  |  |  |  |  |  |  |  | BLQ (BLQ: Below Lower Limit of Quantification (0.5 ng/mL)) | BLQ (BLQ: Below Lower Limit of Quantification (0.5 ng/mL)) | BLQ (BLQ: Below Lower Limit of Quantification (0.5 ng/mL)) | BLQ (BLQ: Below Lower Limit of Quantification (0.5 ng/mL)) | BLQ (BLQ: Below Lower Limit of Quantification (0.5 ng/mL)) | BLQ (BLQ: Below Lower Limit of Quantification (0.5 ng/mL)) |
| CCOC(=O)N(C)C(C)Cc1ccc2c(c1)OCO2 (centres unmarked) [Ethyl carbamate prodrug of MDMA, Ethyl N-[2-(1,3-benzodioxol-5-yl)-1-methyl-ethyl]-N-methyl-carbamate] |  |  |  |  |  |  |  |  | BLQ (BLQ: Below Lower Limit of Quantification (0.5 ng/mL)) | BLQ (BLQ: Below Lower Limit of Quantification (0.5 ng/mL)) | BLQ (BLQ: Below Lower Limit of Quantification (0.5 ng/mL)) | BLQ (BLQ: Below Lower Limit of Quantification (0.5 ng/mL)) | BLQ (BLQ: Below Lower Limit of Quantification (0.5 ng/mL)) | BLQ (BLQ: Below Lower Limit of Quantification (0.5 ng/mL)) |
| CC(Cc1ccc2c(c1)OCO2)N(C)C(=O)N(C)C (centres unmarked) [Dimethylurea prodrug of MDMA, 1-[2-(2H-1,3-Benzodioxol-5-yl)-1-methyl-ethyl]-1,3,3-trimethylurea] |  |  |  |  |  |  |  |  | BLQ (BLQ: Below Lower Limit of Quantification (0.5 ng/mL)) | BLQ (BLQ: Below Lower Limit of Quantification (0.5 ng/mL)) | BLQ (BLQ: Below Lower Limit of Quantification (0.5 ng/mL)) | BLQ (BLQ: Below Lower Limit of Quantification (0.5 ng/mL)) | BLQ (BLQ: Below Lower Limit of Quantification (0.5 ng/mL)) | BLQ (BLQ: Below Lower Limit of Quantification (0.5 ng/mL)) |
| CC(C)OC(=O)N(C)C(C)Cc1ccc2c(c1)OCO2 (centres unmarked) [Isopropyl carbamate prodrug of MDMA, isopropyl N-[2-(1,3-benzodioxol-5-yl)-1-methyl-ethyl]-N-methyl-carbamate] |  |  |  |  |  |  |  |  | BLQ (BLQ: Below Lower Limit of Quantification (0.5 ng/mL)) | BLQ (BLQ: Below Lower Limit of Quantification (0.5 ng/mL)) | BLQ (BLQ: Below Lower Limit of Quantification (0.5 ng/mL)) | BLQ (BLQ: Below Lower Limit of Quantification (0.5 ng/mL)) | BLQ (BLQ: Below Lower Limit of Quantification (0.5 ng/mL)) | BLQ (BLQ: Below Lower Limit of Quantification (0.5 ng/mL)) |
| CC(Cc1ccc2c(c1)OCO2)N(C)C(=O)CN(C)C(=O)[C@@H](N)Cc1ccccc1 (stereo partly drawn) [SarcPhe prodrug of MDMA, (2S)-2-amino-N-[2-[[2-(1,3-benzodioxol-5-yl)-1-methyl-ethyl]-methyl-amino]-2-oxo-ethyl]-N-methyl-3-phenyl-propanamide] |  |  |  |  |  |  |  |  | BLQ (BLQ: Below Lower Limit of Quantification (0.5 ng/mL)) | BLQ (BLQ: Below Lower Limit of Quantification (0.5 ng/mL)) | BLQ (BLQ: Below Lower Limit of Quantification (0.5 ng/mL)) | BLQ (BLQ: Below Lower Limit of Quantification (0.5 ng/mL)) | BLQ (BLQ: Below Lower Limit of Quantification (0.5 ng/mL)) | BLQ (BLQ: Below Lower Limit of Quantification (0.5 ng/mL)) |

— US20240317724A1, “3,4-METHYLENEDIOXYMETHAMPHETAMINE AND RELATED PS[…] USES THEREOF” (Terran Biosciences Inc., priority 2021, published 2024)
